Patent US10570179B2, “Substituted urea depsipeptide analogs as activators of the CLPP endopeptidase” (priority 2016, dated 2020)
≈ marks a conversion by molar mass, not a printed value. Where two headings read alike, the source gives them in different places. Numbered stars: 1 amine (or outer) side, 2 acyl side, 3 side chain; on linkers, the order of the positions; unused ones are H or OH. Bridge positions count the residues as written; N and C are the ends. Square brackets hold non-standard residues; d marks the D form. Peptide text beside a SMILES is read from it. * marks the point of attachment. Phe(3-Me) = Cc1cccc(C[C@H](N)C(=O)O)c1; NH(4-Cl-2-F-phenyl) = Fc1cc(Cl)ccc1N*; Pro(4R-Me) = C[C@H]1CN[C@H](C(=O)O)C1; Hyp = O=C(O)[C@@H]1C[C@@H](O)CN1; aThr = C[C@H](O)[C@H](N)C(=O)O; NH(2-F-phenyl) = Fc1ccccc1N*; Pip = O=C(O)[C@@H]1CCCCN1; X7 = Clc1ccc(N*)c(Cl)c1; CO = O=C([*:1])[*:2]

How the values were obtained:
[1] = biological target: T1, S. aureus ClpP (Sa-ClpP) (Staphylococcus aureus, UniProt Q2G036); assay: Casein-BODIPY digestion assay (ClpP activation); type: biochemical
T1 construct: made in house; host or cells: E. coli BL21 (DE3)
Description: The compounds were assayed in a casein digestion assay in order to determine their effect on ClpP activation. Briefly, the assay was carried out using S. aureus ClpP (“Sa-ClpP”) overexpressed in E. coli BL21 (DE3) and purified in a two-step process. Purity of the protein was assessed through SDS PAGE analysis. EC50 evaluations were conducted in triplicate in a 20 μl assay format using a method adapted from Maurizi et al. (Methods Enzymol. (1994) 244:314-331). Each well contained 10 μM saClpP, 25 μg/ml BODIPY FL casein (Invitrogen Corporation, San Diego, Calif.), and test compound in concentrations ranging between 0-1000 μM in assay buffer (50 mM Tris pH 8, 200 mM KCl, and 1 mM TCEP). The reaction took place at 37° C. Fluorescence (excitation 485 nm; emission 528 nm) was measured in five minute intervals over a 45 min period using a BioTek HT fluorescence microplate reader (BioTek Instruments, Inc., Winooski, Vt.). Velocity of each reaction was calculated and data was fit to a dose response curve using GraphPad Prism® software (GraphPad Software, Inc., La Jolla, Calif.). EC50 is the effective concentration of compound which causes 50% activation of S. aureus ClpP in the foregoing BODIPY FL casein assay.
Alternatively, the assay was carried out using EnzCheck Protease Assay (Molecular Probes, Catalog # E6638). The assay was performed in black 384 well, flat bottom, low volume plates (Greiner Bio-One, Monroe, N.C., catalog #784076). 10 μL of Tris.HCl buffer, pH 8.0 with 0.01% Triton X-100 was pipetted into each well using a Well-Mate (Thermo Scientific, Waltham, Mass.). 0.4 μL test compounds or controls (2% DMSO v/v) were added to each well using a Biomek FX liquid handling robot (Beckman Coulter, Indianapolis, Ind.). After addition of test compounds and controls, 10 μL of master mix containing 2 μM Sa-ClpP and 2 μM substrate (Bodipy-FL labeled casein) in Tris.HCl buffer, pH 8.0 with 0.01% (v/v) Triton X-100, was pipetted into each well. All assays were performed in triplicate, under linear velocity conditions. Increase in fluorescent signal following activation of Sa-ClpP by test compounds and controls was measured over time period of 30 mins using filters with excitation at 485±15 nm and emission at 520±25 nm on a PHERAstar FS Multilabel reader (BMG, Cary, N.C.). Instrument gains and enzyme linear velocity conditions were determined and validated using ADEP4, a known Sa-ClpP activator. Data analysis was done by measuring rate of casein degradation over time (slopes). Computed degradation rates (slopes) were normalized to positive (ADEP4) or negative (DMSO) controls. Using nonlinear regression curve fitting EC50 values and % activation were determined using the equation “log [agonist] vs. Response-variable slope (four parameters)-symmetrical” in the program Prism 6 (GraphPad Software, La Jolla, Calif. USA, www.graphpad.com).

[2] = test system: S. aureus ΔClpP; assay: Minimal inhibitory concentration, microbroth dilution; type: cell-based, Staphylococcus aureus; settings: MIC; ClpP inactivated
Description: (§1) Minimal inhibitory concentrations (“MICs”) were determined using the microbroth dilution method according to Clinical Laboratory Standards Institute (CLSI; National, C.F. C. L. S., Methods for Dilution Antimicrobial Susceptibility Tests for Bacteria Grow aerobically-Seventh Edition: Approved Standard M7-A7, CLSI, Wayne, Pa., USA, 2008) and were read by visual inspection. Two fold serial dilutions of test compound in 100 μL of the appropriate broth media were first prepared in 96-well round bottom microtiter plates (Nalgene Nunc International, Rochester, N.Y., USA). An equivalent volume (100 μL) of bacterial broth inocula containing approximately 10^5 bacterial cfu/mL was added to each well to give final concentrations of test compound starting at 200 μM. The plates were then incubated aerobically at 37° C. All strains were incubated overnight. After incubations, in all cases the MIC was recorded as the lowest concentration of drug that prevented bacterial growth. The bacterial strains for which MIC was determined as described in Table 4.

[3] = test system: E. faecails; assay: as above; type: cell-based; settings: Enterococcus faecalis
Description: as §1

[4] = test system: S. aureus ATCC 29213; assay: as above; type: cell-based; settings: Staphylococcus aureus
Description: as §1

[5] = test system: MRSA NRS70; assay: as above; type: cell-based; settings: Staphylococcus aureus
Description: as §1

[6] = test system: S. aureus USA 300; assay: as above; type: cell-based; settings: Staphylococcus aureus
Description: as §1

T1 sequence (Q2G036 whole entry): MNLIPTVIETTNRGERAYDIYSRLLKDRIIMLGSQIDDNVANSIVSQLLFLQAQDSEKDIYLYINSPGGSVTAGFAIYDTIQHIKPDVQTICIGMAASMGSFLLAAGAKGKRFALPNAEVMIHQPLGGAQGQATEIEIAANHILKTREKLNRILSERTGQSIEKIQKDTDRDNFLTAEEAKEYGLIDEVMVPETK

Cc1cccc(C[C@H](NC(=O)Nc2ccc(Cl)cc2Cl)C(=O)N[C@@H]2C(=O)N3C[C@H](O)C[C@H]3C(=O)N3CCCC[C@H]3C(=O)N[C@@H](C)C(=O)N3C[C@H](C)C[C@H]3C(=O)O[C@H]2C)c1 [Compound 78, (S)-2-(3-(2,4-DICHLOROPHENYL)UREIDO)-N-((2R,6S,8AS,14AS,16R,20S,21S,23AS)-16-HYDROXY-2,6,21-TRIMETHYL-5,8,14,19,23-PENTAOXOOCTADECAHYDRO-1H,5H,14H,19H-PYRIDO[2,1-I]DIPYRROLO[2,1-C:2′,1′-L][1]OXA[4,7,10,13]TETRAAZACYCLOHEXADECIN-20-YL)-3-(M-TOLYL)PROPANAMIDE] ({X7-CO}-[Phe(3-Me)][aThr][Hyp][Pip]A[Pro(4R-Me)]; ester 2-C) showed an EC50 [1] of 330 ± 100 nM.
Cc1cccc(C[C@H](NC(=O)Nc2ccc(Cl)cc2F)C(=O)N[C@@H]2C(=O)N3C[C@H](O)C[C@H]3C(=O)N3CCCC[C@H]3C(=O)N[C@@H](C)C(=O)N3CCC[C@H]3C(=O)O[C@H]2C)c1 [Compound 50, (S)-2-(3-(4-CHLORO-2-FLUOROPHENYL)UREIDO)-N-((6S,8AS,14AS,16R,20S,21S,23AS)-16-HYDROXY-6,21-DIMETHYL-5,8,14,19,23-PENTAOXOOCTADECAHYDRO-1H,5H,14H,19H-PYRIDO[2,1-I]DIPYRROLO[2,1-C:2′,1′-L][1]OXA[4,7,10,13]TETRAAZACYCLOHEXADECIN-20-YL)-3-(M-TOLYL)PROPANAMIDE] ({NH(4-Cl-2-F-phenyl)-CO}-[Phe(3-Me)][aThr][Hyp][Pip]AP; ester 2-C) was tested, and the “Minimal Inhibitory Concentrations (μM) S. aureus ΔClpP” value [2] was >20 µM, the MIC ([3]; MIC, read-out: Minimal Inhibitory Concentrations (μM) E. faecails) was 2.5 µM (≈ 2.07 µg/mL) and the MIC ([4]; ATCC29213, MIC, read-out: Minimal Inhibitory Concentrations (μM) S. aureus ATCC 29213) was 0.625 µM (≈ 0.516 µg/mL). For the same compound, the MIC ([5]; MIC, read-out: Minimal Inhibitory Concentrations (μM) MRSA NRS70) was 0.313 µM (≈ 0.259 µg/mL) and the MIC ([6]; USA300, MIC, read-out: Minimal Inhibitory Concentrations (μM) S. aureus USA 300) was 1.25 µM (≈ 1.03 µg/mL).
For Cc1cccc(C[C@H](NC(=O)Nc2cccc(Cl)c2)C(=O)N[C@H]2COC(=O)[C@@H]3C[C@@H](C)CN3C(=O)[C@H](C)NC(=O)[C@@H]3CCCCN3C(=O)[C@@H]3CCCN3C2=O)c1 [Compound 72, (S)-2-(3-(3-CHLOROPHENYL)UREIDO)-N-((2R,6S,8AS,14AS,20S,23AS)-2,6-DIMETHYL-5,8,14,19,23-PENTAOXOOCTADECAHYDRO-1H,5H,14H,19H-PYRIDO[2,1-I]DIPYRROLO[2,1-C:2′,1′-L][1]OXA[4,7,10,13]TETRAAZACYCLOHEXADECIN-20-YL)-3-(M-TOLYL)PROPANAMIDE], the “Minimal Inhibitory Concentrations (μM) S. aureus ΔClpP” value [2] was >20 µM, the MIC ([3]; read-out: Minimal Inhibitory Concentrations (μM) E. faecails, MIC) was 10 µM (≈ 7.92 µg/mL) and the MIC ([4]; ATCC29213, read-out: Minimal Inhibitory Concentrations (μM) S. aureus ATCC 29213, MIC) was 2.5 µM (≈ 1.98 µg/mL). For the same compound, the MIC ([5]; read-out: Minimal Inhibitory Concentrations (μM) MRSA NRS70, MIC) was 2.5 µM (≈ 1.98 µg/mL) and the MIC ([6]; USA300, read-out: Minimal Inhibitory Concentrations (μM) S. aureus USA 300, MIC) was 2.5 µM (≈ 1.98 µg/mL).
In the case of Cc1cccc(C[C@H](NC(=O)Nc2ccccc2F)C(=O)N[C@@H]2C(=O)N3C[C@H](O)C[C@H]3C(=O)N3CCCC[C@H]3C(=O)N[C@@H](C)C(=O)N3C[C@H](C)C[C@H]3C(=O)O[C@H]2C)c1 [Compound 80, (S)-2-(3-(2-FLUOROPHENYL)UREIDO)-N-((2R,6S,8AS,14AS,16R,20S,21S,23AS)-16-HYDROXY-2,6,21-TRIMETHYL-5,8,14,19,23-PENTAOXOOCTADECAHYDRO-1H,5H,14H,19H-PYRIDO[2,1-I]DIPYRROLO[2,1-C:2′,1′-L][1]OXA[4,7,10,13]TETRAAZACYCLOHEXADECIN-20-YL)-3-(M-TOLYL)PROPANAMIDE] ({NH(2-F-phenyl)-CO}-[Phe(3-Me)][aThr][Hyp][Pip]A[Pro(4R-Me)]; ester 2-C), the EC50 [1] is reported as 590 ± 400 nM.
